According to patent publication US11813339B2, “Method of use for therapeutic bone agents” (IGL Pharma, Inc., priority 2017, dated 2023):
Like-named read-outs stand apart in the source and are kept apart here.

How the values were obtained:
osteosarcoma = test: Treatment of dogs with osteosarcoma with LSA Sm-153-DOTMP; type: in vivo
Procedure: Seven dogs with osteosarcoma were treated with the Sm-153-DOTMP made from LSA Sm-153 of Example 1 at 1 mCi/kg.

tumor = test: Ascending dose trial in dogs (MTD); type: in vivo; details: for maximum tolerated dose: dogs
From the text: The maximum tolerated dose is 1.75-2.0 mCi/kg; whereas for Sm-153-EDTMP the maximum tolerated dose was 1.0 mCi/kg. Stable or improved indices were experienced by 7 of 12 dogs.

[1] = Residual activity in bone cancer patients after repeated doses, NaI crystal detection; type: in vivo; details: 30 mCi doses, after receiving 7 doses (of 10); activity due to long-lived radionuclidic impurities
From the text: The Sm-153 prepared as in Example A was used to prepare doses of Sm-153-EDTMP. These doses were used to treat patients suffering from bone cancer. Patients were repeatedly treated (10 times) with 30 mCi of Sm-153-EDTMP as prepared in this example. The first 5 doses were given at 3 month intervals, and the second five doses given at 6 month intervals. After the decay of Sm-153, a NaI crystal was used to detect the amount of residual activity in the patients. […] The activity was due to long-lived radionuclidic impurities created during the target irradiation process.

[2] = system: prostate and breast bone metastases; details: cited from earlier work; for long-lived impurities (Eu isotopes) in patients on multiple doses: high-resolution gamma spectroscopy whole body counters
[3] = about 550 patients, repeated 30 mCi doses

Sm-153 1,4,7,10-tetraazacyclododecanetetramethylenephosphonic acid [LSA Sm-153-DOTMP]
myelosuppression relative to similar dogs treated with 1 mCi/kg of HSA Sm-153-EDTMP (osteosarcoma; evidenced from the nadir in platelets and neutrophils): about one half | uptake in the tumor (osteosarcoma; seven dogs with osteosarcoma, 1 mCi/kg): uptake in the tumor for all dogs | stable or improved indices (tumor; ascending dose trial): 7 of 12 | uptake in tumor (tumor; ascending dose trial of 13 dogs starting at 1.5 mCi/kg): uptake in tumor for all seven dogs tested | maximum tolerated dose (tumor): 1.75-2.0 mCi/kg

Sm-153-ethylenediaminetetramethylenephosphonic acid [Sm-153-EDTMP]
residual activity detected in patients after decay of Sm-153 [1]: significant amounts of activity detected in patients, which increased with each dose given thereafter | maximum tolerated dose (tumor): 1.0 mCi/kg | lesion response [2, 3]: lesion regression | survival [2, 3]: improved survival | long-lived impurities (Eu isotopes) in patients on multiple doses [2]: increases with every treatment | long-lived impurities (Eu isotopes) in patients on multiple doses ([2]; listed as HSA Sm-153-EDTMP): apparent
